Test results reported in patent US7282593B2, “Withanamide and withanolide compositions and method of use thereof” (Board of Trustees of Michigan State University, priority 2003, dated 2007).

The molecules below were run on lipid peroxidation in large unilamellar vesicles (LUVs) (assay: Inhibition of lipid peroxidation in large unilamellar vesicles (liposome) model system). Conditions: at 0.5 μg/mL; vs DMSO control at 21 min.
Procedure: Fluorescence intensity was monitored for 21 minutes at intervals of 3 minutes. The percentage of inhibition represented was calculated with respect to DMSO control at 21 min. The concentrations of compounds tested were 1-3, 5 and 9 at 1 μg/mL; 4, 6-8 at 0.5 μg/mL; 15 at 100 μg/mL; 16 at 50 μg/mL; 17 at 10 μg/mL. Commercial antioxidants BHA, BHT and TBHQ were tested at 1 μg/mL. Data represented indicates the mean ± one standard deviation (n=2).
Compounds tested were 10 and 13 at 100 μg/mL; 12 and 11 were at 10 and 50 μg/mL, respectively. Data represented indicates the mean ± one standard deviation (n=2).
The liposome suspension was prepared by mixing the phospholipid 1-stearoyl-2-linoleoyl-sn-glycero-3-phosphocoline (SLPC) and a fluorescence probe [3-[p-(6-phenyl)-1,3,5-hexatrienylph-enylpropionic acid (DPH-PA). The final assay volume was 2 mL and consisted HEPES (100 μL), 1M NaCl (200 μL), N2-sparged water (1.64 ml), test sample or DMSO (20 μL) and liposome suspension (20 μL). The peroxidation was initiated by the addition of 20 μl of FeCl2. […] The fluorescence was monitored at 0, 1, 3 and every 3 min up to 21 min using a Turner Model 450 Digital fluorometer. The decrease in fluorescence intensity over the time (21 min) indicated the rate of peroxidation. The percentage of lipid peroxidation was calculated with respect to DMSO solvent control. Stock solutions of the samples were prepared at 100 μg/ml and diluted further for the assay.

Molecule	inhibition of lipid peroxidation
Withanamide H [Compound 8]	90%
Withanamide G [Compound 7]	82%
Withanamide F [Compound 6]	85%

Same assay, conditions: at 1 μg/mL; vs DMSO control at 21 min

Molecule	inhibition of lipid peroxidation
Withanamide B [Compound 2]	93%
Withanamide A [Compound 1]	98%
CC(C)(C)c1cc(O)ccc1O [TBHQ, tert-butylhydroquinone, reference compound]	85%
Withanamide D [Compound 4]	94%
COc1ccc(O)c(C(C)(C)C)c1 [BHA, butylated hydroxyanisole, reference compound]	80%
Withanamide C [Compound 3]	79%
Withanamide E [Compound 5]	81%
Withanamide I [Compound 9]	86%
Cc1cc(C(C)(C)C)c(O)c(C(C)(C)C)c1 [BHT, butylated hydroxytoluene, reference compound]	81%

Same assay, conditions: at 10 μg/mL; vs DMSO control at 21 min

Molecule	inhibition of lipid peroxidation
CC1=C(C)C(=O)O[C@@H]([C@@H](C)[C@H]2CC[C@H]3[C@@H]4CC=C5C[C@@H](O[C@@H]6O[C@H](CO[C@@H]7O[C@H](CO)[C@@H](O)[C@H](O)[C@H]7O)[C@@H](O)[C@H](O)[C@H]6O)C[C@H](O)[C@]5(C)[C@H]4CC[C@]23C)C1 [Compound 12, Withanoside V]	82%
Cl.NCCc1c[nH]c2ccc(O)cc12 [Compound 16, serotonine, reference compound]	44%

Same assay, conditions: at 50 μg/mL; vs DMSO control at 21 min

Molecule	inhibition of lipid peroxidation
CC1=C(C)C(=O)O[C@@H]([C@](C)(O)[C@H]2CC[C@H]3[C@@H]4CC=C5C[C@@H](O[C@@H]6O[C@H](CO[C@@H]7O[C@H](CO)[C@@H](O)[C@H](O)[C@H]7O)[C@@H](O)[C@H](O)[C@H]6O)C[C@H](O)[C@]5(C)[C@H]4CC[C@]23C)C1 [Compound 11, withanoside VI]	86%
COc1ccc2[nH]cc(CCN)c2c1 [Compound 15, 5-methoxyserotonine, reference compound]	30%

Same assay, conditions: at 100 μg/mL; vs DMSO control at 21 min

Molecule	inhibition of lipid peroxidation
CC1=C(CO)C(=O)O[C@@H]([C@@H](C)[C@H]2CC[C@H]3[C@@H]4CC=C5C[C@@H](O[C@@H]6O[C@H](CO[C@@H]7O[C@H](CO)[C@@H](O)[C@H](O)[C@H]7O)[C@@H](O)[C@H](O)[C@H]6O)C[C@H](O)[C@]5(C)[C@H]4CC[C@]23C)C1 [Compound 13, withanoside IV]	25%
CC1CC([C@](C)(O)C2CCC3C4CC=C5C[C@@H](OC6OC(COC7OC(CO)C(O)C(O)C7O)C(O)C(O)C6O)C[C@H](O)C5(C)C4CCC32C)OC(=O)C1C (stereo partly drawn) [Compound 10, 23,24-Dihydrowithanolide VI]	84%
NCCc1c[nH]c2ccccc12 [Compound 14, tryptamine, reference compound]	40%

Same assay, conditions: at 10 ppm

Molecule	inhibition of lipid peroxidation
CC1=C(C)C(=O)O[C@@H]([C@@H](C)[C@H]2CC[C@H]3[C@@H]4CC=C5C[C@@H](O[C@@H]6O[C@H](CO[C@@H]7O[C@H](CO)[C@@H](O)[C@H](O)[C@H]7O)[C@@H](O)[C@H](O)[C@H]6O)C[C@H](O)[C@]5(C)[C@H]4CC[C@]23C)C1 [Compound 12, Withanoside V]	82.5%

Same assay, conditions: at 50 ppm

Molecule	lipid peroxidation inhibitory activity
CC1=C(C)C(=O)O[C@@H]([C@](C)(O)[C@H]2CC[C@H]3[C@@H]4CC=C5C[C@@H](O[C@@H]6O[C@H](CO[C@@H]7O[C@H](CO)[C@@H](O)[C@H](O)[C@H]7O)[C@@H](O)[C@H](O)[C@H]6O)C[C@H](O)[C@]5(C)[C@H]4CC[C@]23C)C1 [Compound 11, withanoside VI]	86%
